Experimental data reported in patent US11312701B2, “Formylpyridine derivative having FGFR4 inhibitory activity, preparation method therefor and use thereof” (Abbisko Therapeutics Co., Ltd., priority 2017, dated 2022).

Columns and labels:
FGFR4 = FGFR4 (Homo sapiens, UniProt P22455); assay: FGFR4 Caliper Assay (in vitro biochemical kinase analysis); conditions: Caliper mobility shift, 65 μM ATP, 30° C. 40 minutes; read-out: Enzymatic activity FGFR4 IC50
Experimental: I. In Vitro Biochemical Kinase Analysis of FGFR4
FGFR4 Caliper Assay was used in the present invention to determine the inhibitory activities • of the compounds against FGFR4. The specific experimental procedure was as follows: 1. The kinase reaction in the present invention was carried out in a 384-well plate, and […] of FGFR4, 65 μM of ATP and 1 μM of peptide (5 Fluo Ahx KKKKEEIYFFFG NH2) were respectively added into the following reaction system. • 2. A reaction system is a mixture solution of 50 mM HEPES, pH 7.5, 1 mM DTT, 0.02% Tween 20, 0.02% BSA, 0.6% DMSO, 10 mM beta glycerol phosphate and 10 μM sodium orthovanadate and 16 mM MgCl2. • 3. The reaction system was incubated at 30° C. for 40 minutes. • 4. The reaction was terminated by adding a stop solution (100 mM HEPES, pH 7.5, 5% DMSO, 0.1% Caliper coating reagent, 10 mM EDTA and 0.015% Brij35). • 5. The culture plate with the terminated kinase reaction was transferred to the Caliper LC 3000 workstation to read the data, the phosphorylated and unphosphorylated peptides were separated by using the Caliper microfluid migration shift technique, and the analyte was transferred by allowing a constant buffer flow through the chip, the migration of the substrate peptide was monitored by the labeled fluorescent signal, and the kinase activity was calculated by using the amount of the phosphate-based peptide formed. • 6. Finally, IC50 values were determined by non-linear regression analysis of percent inhibition at different compound concentrations. II. FGFR4 Cell Proliferation Experiment

[1] = test system: Huh7 hepatocellular carcinoma cells; assay: Cell Titer Glo (CTG) cell proliferation experiment; assay type: cell-based; conditions: Homo sapiens, 72 h, HuH-7 cells, 3 days; for IC50: concentration leading to absolute half growth inhibition; for EC50: concentration leading to half maximal growth inhibition
Experimental: Cell Titer Glo (CTG) experiment was used in the present invention to evaluate the functional effects of the compounds on cell proliferation. Huh7 hepatocellular carcinoma cells (Catalog No. TChU182) from the Chinese Academy of Sciences cell bank were cultured in DMEM with high glucose (Gibco, cat. No. 1773536), 10% fetal bovine serum (Gibco, 10099-141) at 37° C., in a 5% CO2 incubator. Compound-mediated inhibition of cell proliferation/survival was assessed by quantification of cellular ATP levels using CTG reagent (Promega, #G7573). The specific experimental procedure was as follows: • 1. The cells were seeded into a tissue culture medium-treated 96-well plate (Costar #3904) at 3500 cells/well/90 μL of fresh medium; • 2. 10 μL of medium containing a compound concentration of 10 fold of its final test concentration was added; • 3. The dose effect as evaluated by a 5-fold serial dilution of the test compound, starting from 10 μM. • 4. After cells incubation for 3 days at 37° C. in a 5% CO2 atmosphere, the effect of the inhibitor on cell proliferation was quantified after adding 50 μL of CTG and testing with luminescence. • 5. The concentration of the compound (EC50) leading to half maximal growth inhibition and the concentration of compound (Absolute IC50) leading to absolute half growth inhibition were determined using a four-parameter curve fit in Graphpad Prism in a plate reader (M1000, Tecan).

Sequence of FGFR4 (P22455 22-802): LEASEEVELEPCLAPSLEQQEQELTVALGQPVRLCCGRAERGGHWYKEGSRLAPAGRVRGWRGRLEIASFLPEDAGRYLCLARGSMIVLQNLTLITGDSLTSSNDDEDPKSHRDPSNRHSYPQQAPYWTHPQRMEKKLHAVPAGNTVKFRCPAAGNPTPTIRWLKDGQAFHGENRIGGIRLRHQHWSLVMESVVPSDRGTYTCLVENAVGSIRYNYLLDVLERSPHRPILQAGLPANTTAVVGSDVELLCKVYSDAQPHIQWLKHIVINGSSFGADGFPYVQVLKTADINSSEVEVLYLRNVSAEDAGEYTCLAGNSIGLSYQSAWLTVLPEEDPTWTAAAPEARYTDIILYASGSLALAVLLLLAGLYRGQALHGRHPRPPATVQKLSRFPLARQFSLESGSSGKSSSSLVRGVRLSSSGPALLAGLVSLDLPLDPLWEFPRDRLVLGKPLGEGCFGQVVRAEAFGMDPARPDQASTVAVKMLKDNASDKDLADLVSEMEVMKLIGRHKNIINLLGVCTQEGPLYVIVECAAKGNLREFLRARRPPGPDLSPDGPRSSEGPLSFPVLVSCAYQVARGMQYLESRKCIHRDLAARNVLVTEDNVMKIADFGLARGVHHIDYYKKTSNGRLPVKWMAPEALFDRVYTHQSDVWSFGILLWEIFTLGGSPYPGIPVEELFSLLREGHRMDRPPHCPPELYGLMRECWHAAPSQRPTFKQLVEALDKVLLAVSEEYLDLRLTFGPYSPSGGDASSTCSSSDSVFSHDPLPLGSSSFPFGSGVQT

Structure (SMILES): CC(C)Sc1cc(NC(=O)N(C)c2ccc(CN3CCN(C)CC3=O)c(C=O)n2)ncc1C#N [Example 34, 3-(5-cyano-4-(isopropylthio)pyridin-2-yl)-1-(6-formyl-5-((4-methyl-2-oxopiperazin-1-yl)methyl)pyridin-2-yl)-1-methylurea]
- IC50 (FGFR4): 2.9 nM
- IC50 [1]: 118 nM
- EC50 [1]: 40.8 nM

Structure (SMILES): CN1CCN(Cc2ccc(N(C)C(=O)Nc3cc(NC4CCC(F)(F)C4)c(C#N)cn3)nc2C=O)C(=O)C1 (centres unmarked) [Example 15, 3-(5-cyano-4-((3,3-difluorocyclopentyl)amino)pyridin-2-yl)-1-(6-formyl-5-((4-methyl-2-oxopiperazin-1-yl)methyl)pyridin-2-yl)-1-methylurea]
- IC50 (FGFR4): 2.3 nM
- IC50 [1]: 48.6 nM
- EC50 [1]: 19.3 nM

Structure (SMILES): CN1CCN(Cc2ccc(N(C)C(=O)Nc3cc(NCCF)c(C#N)cn3)nc2C=O)C(=O)C1 [Example 2, 3-(5-cyano-4-((2-fluoroethyl)amino)pyridin-2-yl)-1-(6-formyl-5-((4-methyl-2-oxopiperazin-1-yl)methyl)pyridin-2-yl)-1-methylurea]
- IC50 (FGFR4): 8 nM

Structure (SMILES): CCN(C(=O)Nc1cc(NC2CC2)c(C#N)cn1)c1ccc(CN2CCN(C)CC2=O)c(C=O)n1 [Example 51, 3-(5-cyano-4-(cyclopropylamino)pyridin-2-yl)-1-ethyl-1-(6-formyl-5-((4-methyl-2-oxopiperazin-1-yl)methyl)pyridin-2-yl)urea]
- IC50 (FGFR4): 1.4 nM
- IC50 [1]: 65 nM
- EC50 [1]: 27 nM

Structure (SMILES): COC1CCN(c2cc(NC(=O)N(C)c3ccc(CN4CCN(C)CC4=O)c(C=O)n3)ncc2C#N)C1 (centres unmarked) [Example 17, 3-(5-cyano-4-(3-methoxypyrrolidin-1-yl)pyridin-2-yl)-1-(6-formyl-5-((4-methyl-2-oxopiperazin-1-yl)methyl)pyridin-2-yl)-1-methylurea]
- IC50 (FGFR4): 6.5 nM
- IC50 [1]: 84.9 nM
- EC50 [1]: 38.1 nM

Structure (SMILES): COC1CC(Nc2cc(NC(=O)N(C)c3ccc(CN4CCN(C)CC4=O)c(C=O)n3)ncc2C#N)C1 (centres unmarked) [Example 8, 3-(5-cyano-4-((3-methoxycyclobutyl)amino)pyridin-2-yl)-1-(6-formyl-5-((4-methyl-2-oxopiperazin-1-yl)methyl)pyridin-2-yl)-1-methylurea]
- IC50 (FGFR4): 5.8 nM

Structure (SMILES): CN1CCN(Cc2ccc(N(C)C(=O)Nc3cc(N4CCC5(CCOC5)C4)c(C#N)cn3)nc2C=O)C(=O)C1 (centres unmarked) [Example 30, 3-(5-cyano-4-(2-oxa-7-azaspiro[4.4]nonan-7-yl)pyridin-2-yl)-1-(6-formyl-5-((4-methyl-2-oxopiperazin-1-yl)methyl)pyridin-2-yl)-1-methylurea]
- IC50 [1]: 206 nM
- EC50 [1]: 76.8 nM

Structure (SMILES): CN1CCN(Cc2ccc(N(C)C(=O)Nc3cc(NCC4CC4)c(C#N)cn3)nc2C=O)C(=O)C1 [Example 4, 3-(5-cyano-4-((cyclopropylmethyl)amino)pyridin-2-yl)-1-(6-formyl-5-((4-methyl-2-oxopiperazin-1-yl)methyl)pyridin-2-yl)-1-methylurea]
- IC50 (FGFR4): 3.8 nM
- IC50 [1]: 77.4 nM
- EC50 [1]: 25.6 nM

Structure (SMILES): N#Cc1cnc(NC(=O)C2(c3cccc(C=O)n3)CC2)cc1NC1CC1 [Example 52, N-(5-cyano-4-(cyclopropylamino)pyridin-2-yl)-1-(6-formylpyridin-2-yl)cyclopropane-1-carboxamide]
- IC50 (FGFR4): 16.3 nM

Structure (SMILES): CN1CCN(Cc2ccc(N(C)C(=O)Nc3cc(N4CCOCC4)c(C#N)cn3)nc2C=O)C(=O)C1 [Example 24, 3-(5-cyano-4-morpholinopyridin-2-yl)-1-(6-formyl-5-((4-methyl-2-oxopiperazin-1-yl)methyl)pyridin-2-yl)-1-methylurea]
- IC50 (FGFR4): 52.2 nM
- IC50 [1]: 1800 nM
- EC50 [1]: 1080 nM

Structure (SMILES): CN1CCN(Cc2ccc(N(C)C(=O)Nc3cc(NCC4CCCO4)c(C#N)cn3)nc2C=O)C(=O)C1 (centres unmarked) [Example 21, 3-(5-cyano-4-(((tetrahydrofuran-2-yl)methyl)amino)pyridin-2-yl)-1-(6-formyl-5-((4-methyl-2-oxopiperazin-1-yl)methyl)pyridin-2-yl)-1-methylurea]
- IC50 (FGFR4): 8 nM
- IC50 [1]: 55.4 nM
- EC50 [1]: 22.7 nM

Structure (SMILES): CN1CCN(Cc2ccc(N(C)C(=O)Nc3cc(NC4CC4)c(C#N)cn3)nc2C=O)C(=O)C1 [Example 1, 3-(5-cyano-4-(cyclopropylamino)pyridin-2-yl)-1-(6-formyl-5-((4-methyl-2-oxopiperazin-1-yl)methyl)pyridin-2-yl)-1-methylurea]
- IC50 (FGFR4): 2 nM
- IC50 [1]: 26.2 nM
- EC50 [1]: 8.3 nM

Structure (SMILES): CN1CCN(Cc2ccc(N(C)C(=O)Nc3cc(NC4CC(F)(F)C4)c(C#N)cn3)nc2C=O)C(=O)C1 [Example 7, 3-(5-cyano-4-((3,3-difluorocyclobutyl)amino)pyridin-2-yl)-1-(6-formyl-5-((4-methyl-2-oxopiperazin-1-yl)methyl)pyridin-2-yl)-1-methylurea]
- IC50 (FGFR4): 2.8 nM
- IC50 [1]: 63.2 nM
- EC50 [1]: 20.4 nM

Structure (SMILES): CN1CCN(Cc2ccc(N(C)C(=O)Nc3cc(NC4CC4)c(I)cn3)nc2C=O)C(=O)C1 [Example 56, 3-(4-(cyclopropylamino)-5-iodopyridin-2-yl)-1-(6-formyl-5-((4-methyl-2-oxopiperazin-1-yl)methyl)pyridin-2-yl)-1-methylurea]
- IC50 (FGFR4): 8.1 nM
- IC50 [1]: 223 nM
- EC50 [1]: 93 nM

Structure (SMILES): COCCOc1cc(NC(=O)N(C)c2ccc(CN3CCN(C)CC3=O)c(C=O)n2)ncc1C#N [Example 36, 3-(5-cyano-4-(2-methoxyethoxy)pyridin-2-yl)-1-(6-formyl-5-((4-methyl-2-oxopiperazin-1-yl)methyl)pyridin-2-yl)-1-methylurea]
- IC50 (FGFR4): 17.1 nM
- IC50 [1]: 410 nM
- EC50 [1]: 190 nM

Structure (SMILES): CN1CCN(Cc2ccc(N(C)C(=O)Nc3cc(NC4CCOC4)c(C#N)cn3)nc2C=O)C(=O)C1 (centres unmarked) [Example 14, 3-(5-cyano-4-((tetrahydrofuran-3-yl)amino)pyridin-2-yl)-1-(6-formyl-5-((4-methyl-2-oxopiperazin-1-yl)methyl)pyridin-2-yl)-1-methylurea]
- IC50 (FGFR4): 5.7 nM
- IC50 [1]: 57.4 nM
- EC50 [1]: 20.1 nM

Structure (SMILES): COC1(C)CN(c2cc(NC(=O)N(C)c3ccc(CN4CCN(C)CC4=O)c(C=O)n3)ncc2C#N)C1 [Example 11, 3-(5-cyano-4-(3-methoxy-3methylazetidin-1-yl)pyridin-2-yl)-1-(6-formyl-5-((4-methyl-2-oxopiperazin-1-yl)methyl)pyridin-2-yl)-1-methylurea]
- IC50 (FGFR4): 6.9 nM
- IC50 [1]: 177 nM
- EC50 [1]: 82.2 nM

Structure (SMILES): CN1CCN(Cc2ccc(N(C)C(=O)Nc3cc(OCC4CC4)c(C#N)cn3)nc2C=O)C(=O)C1 [Example 39, 3-(5-cyano-4-(cyclopropylmethoxy)pyridin-2-yl)-1-(6-formyl-5-((4-methyl-2-oxopiperazin-1-yl)methyl)pyridin-2-yl)-1-methylurea]
- IC50 (FGFR4): 3.4 nM
- IC50 [1]: 100 nM
- EC50 [1]: 48.8 nM
